Experimental data: ChEMBL document CHEMBL1142202, “Putative role of beta-1,3 glucans in Candida albicans biofilm resistance” (2007)
≈ marks a conversion by molar mass, not a printed value. Calls of active or inactive are those of the source. The calls are words filed in the database; no cut-off is given here.

Columns and labels:
Candida albicans [1] = assay: Increase in antifungal activity against Candida albicans K1 biofilm cells assessed as 50 percent reduction of optical density in presence of beta 1,3 glucanase after 48 hrs by XTT assay; assay type: functional
Candida albicans [2] = assay: Increase in antifungal activity against Candida albicans K1 biofilm cells assessed as 80 percent reduction of optical density in presence of beta 1,3 glucanase after 48 hrs by XTT assay; assay type: functional
Candida albicans [3] = assay: Antifungal activity against planktonic Candida albicans K1; assay type: functional
Candida albicans [4] = assay: Effect on biofilm cell viability of Candida albicans K1 at 1000 ug/ml; assay type: functional, organism-based
Candida albicans [5] = assay: Antifungal activity against planktonic Candida albicans K1 in presence of biofilm material after 48 hrs by CLSI M27 A micro-broth method; assay type: functional; conditions: K1, 48 h
Candida albicans [6] = assay: Antifungal activity against planktonic Candida albicans K1 in presence of laminarin after 48 hrs by CLSI M27 A micro-broth method; assay type: functional; conditions: K1, 48 h
Candida albicans [7] = assay: Increase in drug binding to Candida albicans K1 biofilm cell walls, supernatant and matrix as compared to respective planktonic controls; assay type: functional, organism-based
Candida albicans [8] = assay: Antifungal activity against Candida albicans K1 biofilms in in-vivo rat catheter model in presence of beta 1,3-glucanase; assay type: functional, organism-based

Row | SMILES | fractional inhibitory concentration index (FICI) (Candida albicans [1]) | fractional inhibitory concentration index (FICI) (Candida albicans [2]) | MIC (Candida albicans [3]) [µg/mL] | Activity (Candida albicans [4]) | MIC (Candida albicans [5]) [µg/mL] | MIC (Candida albicans [6]) [µg/mL] | Activity (Candida albicans [7]) | Activity (Candida albicans [8])
1 | C[C@@H]1[C@H](O)[C@@H](C)/C=C/C=C/C=C/C=C/C=C/C=C/C=C/[C@H](O[C@@H]2O[C@H](C)[C@@H](O)[C@H](N)[C@@H]2O)C[C@@H]2O[C@](O)(C[C@@H](O)C[C@@H](O)[C@H](O)CC[C@@H](O)C[C@@H](O)CC(=O)O[C@H]1C)C[C@H](O)[C@H]2C(=O)O [AMPHOTERICIN B] | 0.2 | 0.21 |  |  |  |  |  | 
2 | OC(Cn1cncn1)(Cn1cncn1)c1ccc(F)cc1F [FLUCONAZOLE] | 0.31 | 0.1 | 0.5 (≈ 1.63 µM) | inactive | > 128 | > 128 | Active | Active
